Publication PMC9604400, “Synthesis, Anticancer and Antitubercular Properties of New Chalcones and Their Nitrogen-Containing Five-Membered Heterocyclic Hybrids Bearing Sulfonamide Moiety” (International Journal of Molecular Sciences, 2022)
Where “and” joins values, the source holds several entries; their conditions need not be identical. Equal values may be shown once.

Experiments:
[1] = test system: 60 human cancer cell lines; test: NCI-60 screen (SRB), whole panel; format: cell-based
[2] = test system: leukemia cell lines; test: NCI-60 screen (SRB), leukemia panel; format: cell-based; conditions: Homo sapiens
[3] = test system: breast cancer cell lines; test: NCI-60 screen (SRB), breast cancer panel; format: cell-based; conditions: Homo sapiens, single dose 10 μM, read-out: GI (growth inhibition), range over panel
[4] = test system: HL-60(TB); test: cells; conditions: Homo sapiens; for IC50: HL-60; for CC50: HL-60, read-out: LC50
[5] = test system: CCRF-CEM; test: NCI-60 screen (SRB), leukemia; conditions: Homo sapiens; for CC50: read-out: LC50
[6] = test system: K-562; test: NCI-60 screen (SRB), leukemia; conditions: Homo sapiens; for IC50: K562; for CC50: K562, read-out: LC50
[7] = test system: MOLT-4; test: NCI-60 screen (SRB), leukemia; conditions: Homo sapiens; for IC50: MOLT-4; for CC50: MOLT-4, read-out: LC50
[8] = test system: RPMI-8226; test: NCI-60 screen (SRB), leukemia; conditions: Homo sapiens; for IC50: RPMI-8226; for CC50: RPMI-8226, read-out: LC50
[9] = test system: SR; test: NCI-60 screen (SRB), leukemia; conditions: for IC50 / CC50: Homo sapiens; for CC50: read-out: LC50
[10] = test system: MALME-3M; test: NCI-60 screen (SRB), melanoma; conditions: Homo sapiens; for CC50: read-out: LC50
[11] = test system: MDA-MB-435; test: NCI-60 screen (SRB), melanoma; conditions: Homo sapiens; for IC50: MDA-MB-435; for CC50: MDA-MB-435, read-out: LC50
[12] = test system: UACC-62; test: NCI-60 screen (SRB), melanoma; conditions: Homo sapiens; for IC50: UACC-62; for CC50: UACC-62, read-out: LC50
[13] = test system: SF-295; test: NCI-60 screen (SRB), CNS cancer; conditions: Homo sapiens; for IC50: SF-295; for CC50: SF-295, read-out: LC50
[14] = test system: SF-539; test: NCI-60 screen (SRB), CNS cancer; conditions: Homo sapiens; for IC50: SF-539; for CC50: SF-539, read-out: LC50
[15] = test system: SNB-19; test: NCI-60 screen (SRB), CNS cancer; conditions: Homo sapiens; for IC50: SNB-19; for CC50: SNB-19, read-out: LC50
[16] = test system: COLO 205; test: NCI-60 screen (SRB), colon cancer; conditions: for lethality: COLO 205, single dose 10 μM; for IC50 / CC50: Homo sapiens; for IC50: COLO 205; for CC50: COLO 205, read-out: LC50
[17] = test system: HCC-2998; test: NCI-60 screen (SRB), colon cancer; conditions: for IC50 / CC50: Homo sapiens; for IC50: HCC 2998; for CC50: HCC 2998, read-out: LC50
[18] = test system: HCT-15; test: NCI-60 screen (SRB), colon cancer; conditions: for IC50 / CC50: Homo sapiens; for IC50: HCT-15; for CC50: HCT-15, read-out: LC50
[19] = test system: HT29; test: NCI-60 screen (SRB), colon cancer; conditions: Homo sapiens; for IC50: HT-29; for CC50: HT-29, read-out: LC50
[20] = test system: SW-620; test: NCI-60 screen (SRB), colon cancer; conditions: for IC50 / CC50: Homo sapiens; for IC50: SW-620; for CC50: SW-620, read-out: LC50
[21] = test system: 786-0; test: NCI-60 screen (SRB), renal cancer; conditions: Homo sapiens; for IC50: 786-0; for CC50: 786-0, read-out: LC50
[22] = test system: CAKI-1; test: NCI-60 screen (SRB), renal cancer; conditions: Homo sapiens; for IC50: CAKI-1; for CC50: CAKI-1, read-out: LC50
[23] = test system: MDA-MB-231/ATCC; test: NCI-60 screen (SRB), breast cancer; conditions: Homo sapiens; for IC50: MDA-MB-231; for CC50: MDA-MB-231, read-out: LC50
[24] = test system: HS 578T; test: NCI-60 screen (SRB), breast cancer; conditions: for IC50 / CC50: Homo sapiens, Hs-578T; for CC50: read-out: LC50
[25] = test system: T-47D; test: NCI-60 screen (SRB), breast cancer; conditions: Homo sapiens, T47D; for CC50: read-out: LC50
[26] = test system: IGROV1; test: NCI-60 screen (SRB), ovarian cancer; conditions: Homo sapiens; for IC50: IGROV-1; for CC50: IGROV-1, read-out: LC50
[27] = test system: OVCAR-3; test: NCI-60 screen (SRB), ovarian cancer; conditions: Homo sapiens; for IC50: OVCAR-3; for CC50: OVCAR-3, read-out: LC50
[28] = test system: OVCAR-4; test: NCI-60 screen (SRB), ovarian cancer; conditions: Homo sapiens; for IC50: OVCAR-4; for CC50: OVCAR-4, read-out: LC50
[29] = test system: PC-3; test: NCI-60 screen (SRB), prostate cancer; conditions: Homo sapiens; for IC50: PC-3; for CC50: PC-3, read-out: LC50
[30] = test system: DU-145; test: NCI-60 screen (SRB), prostate cancer; conditions: Homo sapiens; for IC50: DU-145; for CC50: DU-145, read-out: LC50
[31] = test system: A549/ATCC; test: NCI-60 screen (SRB), non-small cell lung cancer; conditions: Homo sapiens; for IC50: A549; for CC50: A549, read-out: LC50
[32] = test system: EKVX; test: NCI-60 screen (SRB), non-small cell lung cancer; conditions: Homo sapiens; for CC50: read-out: LC50
[33] = test system: NCI-H226; test: NCI-60 screen (SRB), non-small cell lung cancer; conditions: for IC50 / CC50: Homo sapiens; for IC50: NCI-H226; for CC50: NCI-H226, read-out: LC50

`COc1cc(OC)c(S(N)(=O)=O)cc1C(=O)/C=C/c1ccc(Cl)cc1` [Compound 17b, (E)-5-(3-(4-Chlorophenyl)acryloyl)-2,4-dimethoxybenzenesulfonamide] was tested, and the IC50 ([1]; Homo sapiens, five-dose screen, read-out: IC50 values against most cell lines (range)) was 0.73 to 18.6 µM, the inhibition at 10 µM ([1]; Homo sapiens, single dose 10 μM, mean over 60 cell lines, over 100% = cell death, read-out: Mean growth inhibition (GI) percentage) was 94.1% and the inhibition at 10 µM ([2]; leukemia panel, single dose 10 μM, read-out: GI (growth inhibition), range over panel) was 92.8 to 100%. It also gave an inhibition at 10 µM [3] of 73.9 to 100%, an IC50 [4] of 1910 nM and a CC50 [4] greater than 100 µM. The IC50 [5] was 1520 nM, the CC50 [5] was greater than 100 µM and the IC50 [6] was 1850 nM. It also gave a CC50 [6] greater than 100 µM, an IC50 [7] of 2830 nM and a CC50 [7] greater than 100 µM. For the same compound, the IC50 [8] was 1860 nM, the CC50 [8] was greater than 100 µM and the IC50 [9] was 2110 nM. The CC50 [9] was greater than 100 µM, the lethality ([9]; single dose 10 μM) was 19.50% and the IC50 [10] was 2.79 µM. The CC50 [10] was 87.4 µM, the IC50 [11] was 2.08 µM and the CC50 [11] was 29.3 µM. The IC50 [12] was 2.67 µM, the CC50 [12] was 40.8 µM and the IC50 [13] was 3.88 µM. It also gave a CC50 [13] of 57.6 µM, an IC50 [14] of 2140 nM and a CC50 [14] of 12.6 µM. For the same compound, the IC50 [15] was 3.17 µM, the CC50 [15] was greater than 100 µM and the lethality [16] was 30.00%. The IC50 [16] was 1.66 µM, the CC50 [16] was 5.88 µM and the IC50 [17] was 2410 nM. For the same compound, the CC50 [17] was 22.3 µM, the lethality ([18]; HCT-15, single dose 10 μM) was 41.55% and the IC50 [18] was 1460 nM. The CC50 [18] was greater than 100 µM, the IC50 [19] was 2.18 µM and the CC50 [19] was 9.97 µM. For the same compound, the IC50 [20] was 2.49 µM, the CC50 [20] was 95.9 µM and the lethality ([20]; SW-620, single dose 10 μM) was 39.92%. It also gave an IC50 [21] of 1.9 µM, a CC50 [21] of 9.83 µM and an IC50 [22] of 1890 nM. It also gave a CC50 [22] of 32.9 µM, an IC50 [23] of 18.9 µM and a CC50 [23] greater than 100 µM. The IC50 [24] was greater than 100 µM, the CC50 [24] was greater than 100 µM and the IC50 [25] was 12.4 µM. For the same compound, the CC50 [25] was 64.6 µM, the IC50 [26] was 2.95 µM and the CC50 [26] was greater than 100 µM. It also gave an IC50 [27] of 3.51 µM, a CC50 [27] of 66.8 µM and an IC50 [28] of 3.54 µM. The CC50 [28] was greater than 100 µM, the IC50 [29] was 1600 nM and the CC50 [29] was 20.8 µM. For the same compound, the IC50 [30] was 3.44 µM, the CC50 [30] was 42.2 µM and the IC50 [31] was 3.17 µM. The CC50 [31] was greater than 100 µM, the IC50 [32] was 3.88 µM and the CC50 [32] was greater than 100 µM. For the same compound, the IC50 [33] was 2560 nM, the CC50 [33] was greater than 100 µM and the lethality ([33]; NCI-H226, single dose 10 μM) was 25.96%.

`COc1cc(OC)c(S(=O)(=O)N(CCCl)CCCl)cc1C(=O)/C=C/c1cc(OC)c(OC)c(OC)c1` [Compound 18e, (E)-N,N-bis(2-Chloroethyl)-2,4-dimethoxy-5-(3-(3,4,5-trimethoxyphenyl)acryloyl)benzenesulfonamide] was tested, and the mean lethality ([1]; single dose 10 μM, mean over 60 cell lines) was 25.48%, the “Mean growth inhibition (GI) percentage” value ([1]; single dose 10 μM, mean over 60 cell lines, over 100% = cell death) was 100.00% and 125.48% and the IC50 ([2]; read-out: IC50 (GI50), range over leukemia panel) was 990 to 2520 nM. It also gave an IC50 [4] of 1600 nM, a CC50 [4] greater than 100 µM and an IC50 [5] of 1690 nM. For the same compound, the CC50 [5] was greater than 100 µM, the IC50 [6] was 1300 nM and the CC50 [6] was greater than 100 µM. For the same compound, the IC50 [7] was 2040 nM, the CC50 [7] was greater than 100 µM and the IC50 [8] was 2520 nM. For the same compound, the CC50 [8] was greater than 100 µM, the IC50 [9] was 990 nM and the CC50 [9] was greater than 100 µM. For the same compound, the IC50 [10] was 7.18 µM, the CC50 [10] was greater than 100 µM and the IC50 [11] was 7.51 µM. The CC50 [11] was greater than 100 µM, the IC50 [12] was 4.94 µM and the CC50 [12] was greater than 100 µM. The IC50 [13] was 35.4 µM, the CC50 [13] was greater than 100 µM and the IC50 [14] was 3610 nM. For the same compound, the CC50 [14] was 7.51 µM, the IC50 [15] was 5.71 µM and the CC50 [15] was 45.7 µM. For the same compound, the lethality [16] was 89.76%, the IC50 [16] was 4.46 µM and the CC50 [16] was 8.39 µM. The lethality ([17]; HCC-2998, single dose 10 μM) was 91.08%, the IC50 [17] was 3540 nM and the CC50 [17] was 6.35 µM. It also gave an IC50 [18] of 3980 nM, a CC50 [18] greater than 100 µM and an IC50 [19] of 5.92 µM. It also gave a CC50 [19] greater than 100 µM, an IC50 [20] of 25.1 µM and a CC50 [20] greater than 100 µM. The IC50 [21] was 5.66 µM, the CC50 [21] was greater than 100 µM and the IC50 [22] was greater than 100000 nM. It also gave a CC50 [22] greater than 100 µM, an IC50 [23] greater than 100 µM and a CC50 [23] greater than 100 µM. The GI% ([24]; HS 578T, single dose 10 μM) was 21.70%, the IC50 [24] was greater than 100 µM and the CC50 [24] was greater than 100 µM. It also gave an IC50 [25] greater than 100 µM, a CC50 [25] greater than 100 µM and an IC50 [26] of 9.05 µM. For the same compound, the CC50 [26] was greater than 100 µM, the IC50 [27] was 6.62 µM and the CC50 [27] was greater than 100 µM. For the same compound, the IC50 [28] was greater than 100 µM, the CC50 [28] was greater than 100 µM and the IC50 [29] was greater than 100000 nM. For the same compound, the CC50 [29] was greater than 100 µM, the IC50 [30] was 14.8 µM and the CC50 [30] was greater than 100 µM. For the same compound, the IC50 [31] was 3.11 µM, the CC50 [31] was greater than 100 µM and the IC50 [32] was 2.69 µM. The CC50 [32] was greater than 100 µM, the IC50 [33] was 2610 nM and the CC50 [33] was greater than 100 µM.
